Experiments:
P2X purinoceptor 3 = biological target: T1, P2X purinoceptor 3 (Rattus norvegicus, UniProt P49654); assay: Antagonist activity at rat P2X3 receptor expressed in CHO cells; type: functional, cell-based
T1 sequence (P49654 whole entry): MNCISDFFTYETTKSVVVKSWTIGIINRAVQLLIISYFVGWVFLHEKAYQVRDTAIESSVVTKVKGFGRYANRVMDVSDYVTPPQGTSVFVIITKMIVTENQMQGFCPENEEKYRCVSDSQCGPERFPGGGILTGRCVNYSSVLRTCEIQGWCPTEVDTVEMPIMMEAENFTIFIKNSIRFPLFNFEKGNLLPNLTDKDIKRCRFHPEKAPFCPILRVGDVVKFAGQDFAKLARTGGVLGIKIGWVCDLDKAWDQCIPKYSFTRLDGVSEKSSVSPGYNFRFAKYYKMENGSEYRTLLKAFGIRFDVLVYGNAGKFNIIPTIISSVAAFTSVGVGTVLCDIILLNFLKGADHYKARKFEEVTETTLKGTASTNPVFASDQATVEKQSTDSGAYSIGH

[1] = biological target: T2, P2X2/P2X3 heterotrimeric receptor (Homo sapiens, UniProt P56373+Q9UBL9); assay: Antagonist activity at human P2X2/P2X3 receptor expressed in human 1321N1C cells; type: functional, cell-based
T2 sequence (Q9UBL9 whole entry): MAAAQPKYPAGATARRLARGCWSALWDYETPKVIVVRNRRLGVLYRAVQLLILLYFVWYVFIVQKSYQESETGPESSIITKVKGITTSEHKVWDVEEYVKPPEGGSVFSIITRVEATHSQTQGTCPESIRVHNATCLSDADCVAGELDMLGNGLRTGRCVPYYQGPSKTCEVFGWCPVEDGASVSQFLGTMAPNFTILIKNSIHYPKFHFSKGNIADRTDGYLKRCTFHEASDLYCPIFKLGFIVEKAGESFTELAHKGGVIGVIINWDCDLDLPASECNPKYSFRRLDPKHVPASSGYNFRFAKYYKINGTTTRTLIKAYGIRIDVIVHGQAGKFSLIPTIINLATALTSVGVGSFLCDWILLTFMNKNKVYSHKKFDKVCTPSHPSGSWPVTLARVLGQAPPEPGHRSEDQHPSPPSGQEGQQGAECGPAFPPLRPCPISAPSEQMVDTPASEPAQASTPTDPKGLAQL
T2 sequence (P56373 whole entry): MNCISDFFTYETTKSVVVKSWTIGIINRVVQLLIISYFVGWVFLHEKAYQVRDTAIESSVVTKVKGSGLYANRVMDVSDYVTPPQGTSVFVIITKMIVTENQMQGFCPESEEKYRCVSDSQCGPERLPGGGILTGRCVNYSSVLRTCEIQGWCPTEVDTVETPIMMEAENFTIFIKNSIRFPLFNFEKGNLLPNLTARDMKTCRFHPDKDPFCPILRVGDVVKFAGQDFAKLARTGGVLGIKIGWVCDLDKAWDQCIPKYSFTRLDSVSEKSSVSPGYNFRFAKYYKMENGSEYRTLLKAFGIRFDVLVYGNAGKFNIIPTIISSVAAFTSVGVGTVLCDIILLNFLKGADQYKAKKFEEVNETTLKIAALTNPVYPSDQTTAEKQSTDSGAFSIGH

[2] = Protein binding in rat plasma; type: ADME, cell-free; conditions: read-out: PPB (converted)
Cytochrome P450 3A4 = Cytochrome P450 3A4 (Homo sapiens, UniProt P08684); assay: Inhibition of CYP3A4; type: ADME
Sequence of Cytochrome P450 3A4 (P08684 whole entry): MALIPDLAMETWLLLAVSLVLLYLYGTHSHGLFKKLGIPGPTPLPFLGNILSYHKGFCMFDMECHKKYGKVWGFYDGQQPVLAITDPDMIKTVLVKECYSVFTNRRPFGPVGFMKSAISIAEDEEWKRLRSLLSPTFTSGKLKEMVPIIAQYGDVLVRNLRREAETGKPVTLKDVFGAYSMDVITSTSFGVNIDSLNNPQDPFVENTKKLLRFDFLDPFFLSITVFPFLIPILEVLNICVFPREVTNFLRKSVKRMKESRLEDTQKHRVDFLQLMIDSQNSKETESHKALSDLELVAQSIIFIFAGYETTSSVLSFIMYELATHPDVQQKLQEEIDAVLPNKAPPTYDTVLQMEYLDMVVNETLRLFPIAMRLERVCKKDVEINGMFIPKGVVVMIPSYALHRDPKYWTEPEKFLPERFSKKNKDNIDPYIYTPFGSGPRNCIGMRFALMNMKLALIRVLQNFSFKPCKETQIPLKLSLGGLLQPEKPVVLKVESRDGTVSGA

Cytochrome P450 2D6 = Cytochrome P450 2D6 (Homo sapiens, UniProt P10635); assay: Inhibition of CYP2D6; type: ADME
Sequence of Cytochrome P450 2D6 (P10635 whole entry): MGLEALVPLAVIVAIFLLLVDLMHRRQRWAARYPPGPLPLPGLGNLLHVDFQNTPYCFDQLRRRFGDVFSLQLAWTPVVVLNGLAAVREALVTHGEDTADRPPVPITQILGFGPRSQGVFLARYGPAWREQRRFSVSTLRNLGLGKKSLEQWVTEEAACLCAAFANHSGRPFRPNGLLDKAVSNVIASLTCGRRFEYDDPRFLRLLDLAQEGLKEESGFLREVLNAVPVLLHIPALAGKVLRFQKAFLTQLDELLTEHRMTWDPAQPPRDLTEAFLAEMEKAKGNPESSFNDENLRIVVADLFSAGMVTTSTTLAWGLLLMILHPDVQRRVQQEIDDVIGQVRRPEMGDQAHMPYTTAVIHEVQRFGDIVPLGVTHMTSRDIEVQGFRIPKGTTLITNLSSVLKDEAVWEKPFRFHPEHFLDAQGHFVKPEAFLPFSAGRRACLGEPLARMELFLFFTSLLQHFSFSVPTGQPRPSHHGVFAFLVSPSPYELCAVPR

P2X purinoceptor 1 = P2X purinoceptor 1 (Homo sapiens, UniProt P51575); assay: Antagonist activity at P2X1 receptor; type: functional
Sequence of P2X purinoceptor 1 (P51575 whole entry): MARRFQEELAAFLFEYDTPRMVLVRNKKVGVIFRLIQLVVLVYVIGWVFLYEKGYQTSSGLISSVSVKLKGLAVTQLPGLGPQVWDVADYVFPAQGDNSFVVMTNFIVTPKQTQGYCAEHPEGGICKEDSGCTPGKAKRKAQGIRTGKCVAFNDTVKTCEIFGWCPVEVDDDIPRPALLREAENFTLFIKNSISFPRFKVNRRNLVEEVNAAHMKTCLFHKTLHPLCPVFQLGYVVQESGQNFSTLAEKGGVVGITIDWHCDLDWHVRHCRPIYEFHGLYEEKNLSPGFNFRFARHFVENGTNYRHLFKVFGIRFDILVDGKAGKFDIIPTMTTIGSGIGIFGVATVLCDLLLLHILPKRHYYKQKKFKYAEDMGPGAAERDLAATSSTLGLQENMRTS

P2X purinoceptor 2 = P2X purinoceptor 2 (Homo sapiens, UniProt Q9UBL9); assay: Antagonist activity at P2X2 receptor; type: functional
P2X purinoceptor 4 = P2X purinoceptor 4 (Homo sapiens, UniProt Q99571); assay: Antagonist activity at P2X4 receptor; type: functional
Sequence of P2X purinoceptor 4 (Q99571 whole entry): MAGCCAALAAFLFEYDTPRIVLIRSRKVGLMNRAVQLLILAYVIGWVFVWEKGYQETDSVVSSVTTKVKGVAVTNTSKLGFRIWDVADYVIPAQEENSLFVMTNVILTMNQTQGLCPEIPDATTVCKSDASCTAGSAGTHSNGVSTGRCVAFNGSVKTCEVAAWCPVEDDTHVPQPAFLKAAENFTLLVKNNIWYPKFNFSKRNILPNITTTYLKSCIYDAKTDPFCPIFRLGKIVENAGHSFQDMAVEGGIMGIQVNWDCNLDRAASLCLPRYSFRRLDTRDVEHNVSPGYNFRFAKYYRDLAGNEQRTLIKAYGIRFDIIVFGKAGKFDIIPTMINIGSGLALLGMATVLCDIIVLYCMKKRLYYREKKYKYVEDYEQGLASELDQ

P2X purinoceptor 5 = P2X purinoceptor 5 (Homo sapiens, UniProt Q93086); assay: Antagonist activity at P2X5 receptor; type: functional
Sequence of P2X purinoceptor 5 (Q93086 whole entry): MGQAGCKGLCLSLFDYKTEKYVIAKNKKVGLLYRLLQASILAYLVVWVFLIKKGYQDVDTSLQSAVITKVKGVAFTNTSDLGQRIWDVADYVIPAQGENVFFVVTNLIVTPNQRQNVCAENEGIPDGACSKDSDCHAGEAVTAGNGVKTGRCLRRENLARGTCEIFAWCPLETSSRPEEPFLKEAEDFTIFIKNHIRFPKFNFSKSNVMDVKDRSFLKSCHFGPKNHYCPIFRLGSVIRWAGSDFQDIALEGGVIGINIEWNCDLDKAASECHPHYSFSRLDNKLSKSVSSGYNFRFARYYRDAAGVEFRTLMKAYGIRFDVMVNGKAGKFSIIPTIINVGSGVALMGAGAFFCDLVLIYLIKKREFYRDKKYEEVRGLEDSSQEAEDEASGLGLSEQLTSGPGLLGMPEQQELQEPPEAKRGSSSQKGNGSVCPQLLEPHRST

P2X purinoceptor 6 = P2X purinoceptor 6 (Homo sapiens, UniProt O15547); assay: Antagonist activity at P2X6 receptor; type: functional
Sequence of P2X purinoceptor 6 (O15547 whole entry): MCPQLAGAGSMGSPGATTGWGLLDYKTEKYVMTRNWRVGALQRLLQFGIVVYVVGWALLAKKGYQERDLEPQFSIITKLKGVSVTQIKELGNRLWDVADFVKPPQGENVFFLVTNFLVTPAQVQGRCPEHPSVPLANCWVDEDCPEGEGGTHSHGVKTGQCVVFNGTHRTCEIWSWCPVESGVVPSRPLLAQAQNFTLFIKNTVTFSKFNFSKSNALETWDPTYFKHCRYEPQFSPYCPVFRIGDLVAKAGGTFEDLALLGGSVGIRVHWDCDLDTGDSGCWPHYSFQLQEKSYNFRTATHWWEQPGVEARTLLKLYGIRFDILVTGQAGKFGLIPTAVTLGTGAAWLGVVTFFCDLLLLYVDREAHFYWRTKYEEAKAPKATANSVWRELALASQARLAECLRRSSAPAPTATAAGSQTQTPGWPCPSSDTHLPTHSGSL

P2X purinoceptor 7 = P2X purinoceptor 7 (Homo sapiens, UniProt Q99572); assay: Antagonist activity at P2X7 receptor; type: functional
Sequence of P2X purinoceptor 7 (Q99572 whole entry): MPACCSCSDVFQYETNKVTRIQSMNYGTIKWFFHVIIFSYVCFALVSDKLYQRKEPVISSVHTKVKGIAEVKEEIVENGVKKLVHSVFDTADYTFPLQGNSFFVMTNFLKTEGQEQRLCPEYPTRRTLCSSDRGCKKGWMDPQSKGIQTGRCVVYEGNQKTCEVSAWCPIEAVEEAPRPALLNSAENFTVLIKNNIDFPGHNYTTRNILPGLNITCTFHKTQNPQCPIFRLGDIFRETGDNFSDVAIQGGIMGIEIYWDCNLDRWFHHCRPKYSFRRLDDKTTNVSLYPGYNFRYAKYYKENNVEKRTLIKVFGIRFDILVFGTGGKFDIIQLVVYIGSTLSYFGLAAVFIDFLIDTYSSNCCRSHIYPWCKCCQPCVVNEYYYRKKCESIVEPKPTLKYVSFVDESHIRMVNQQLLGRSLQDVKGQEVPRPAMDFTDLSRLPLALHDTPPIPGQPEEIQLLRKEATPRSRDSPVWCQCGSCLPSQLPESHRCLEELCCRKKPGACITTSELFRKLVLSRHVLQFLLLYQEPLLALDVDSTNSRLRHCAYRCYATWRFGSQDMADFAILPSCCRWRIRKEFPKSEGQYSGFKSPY

Structure (SMILES)	IC50 (P2X purinoceptor 3)	IC50 [1]	also measured
CC(CN1CCN(c2ncccn2)CC1)NC(=O)c1cc2c(-c3ccccc3)nn(-c3ccccc3)c2s1 (stereo unspecified)	> 10 µM		
CC(CN1CCN(c2ncccn2)CC1)NC(=O)c1oc(-c2ccccc2)cc1-c1ccccc1 (stereo unspecified)	0.631 µM	> 10 µM	
CC(CN1CCN(c2ncccn2)CC1)NC(=O)c1cc(-c2ccccc2)nn1-c1ccccc1 (stereo unspecified)	1 µM	> 10 µM	
CC(CN1CCN(c2ncccn2)CC1)NC(=O)c1cc2c(-c3ccccc3)nn(C)c2o1 (stereo unspecified)	> 10 µM		
CCn1nc(-c2ccccc2)c2cc(C(=O)NC(C)CN3CCN(c4ncccn4)CC3)sc21 (stereo unspecified)	0.501 µM		
CC(CN1CCN(c2ncccn2)CC1)NC(=O)c1cc(-c2ccccc2)oc1-c1ccccc1 (stereo unspecified)	2 µM	> 10 µM	
CC(CN1CCN(c2ncccn2)CC1)NC(=O)c1cc(-c2ccccc2)n(-c2ccccc2)n1 (stereo unspecified)	1.26 µM	> 10 µM	
CC(CN1CCN(c2ncccn2)CC1)N1Cc2c(c(-c3ccccc3)nn2-c2ccc(F)cc2)C1=O (stereo unspecified)	> 10 µM		
CC(CN1CCN(c2ncccn2)CC1)NC(=O)c1cc(-c2ccccc2)nc(-c2ccccc2)c1 (stereo unspecified)	1.26 µM	> 10 µM	
CC(CN1CCN(c2ncccn2)CC1)NC(=O)c1nc(-c2ccccc2)cc(-c2ccccc2)n1 (stereo unspecified)	5.01 µM	> 10 µM	
Cc1c(C(=O)NC(C)CN2CCN(c3ncccn3)CC2)c(-c2ccccc2)nn1-c1ccccc1 (stereo unspecified)	> 10 µM	> 10 µM	
CC(CN1CCN(c2ncccn2)CC1)NC(=O)c1cc2c(-c3ccccc3)nn(C)c2s1 (stereo unspecified)	0.2 µM	> 10 µM	
CC(CN1CCN(c2ncccn2)CC1)NC(=O)c1sc(-c2ccccc2)nc1-c1ccccc1 (stereo unspecified)	> 10 µM	> 10 µM	
CC(CN1CCN(c2ncccn2)CC1)NC(=O)c1cc(-c2ccc(F)cc2)cc(-c2ccc(F)cc2)c1 (stereo unspecified)	0.398 µM	> 10 µM	
Cc1nn(-c2ccccc2)c2sc(C(=O)NC(C)CN3CCN(c4ncccn4)CC3)cc12 (stereo unspecified)	10 µM		
CC(CN1CCN(c2ncccn2)CC1)NC(=O)c1cc2c(-c3ccccc3F)nn(C)c2s1 (stereo unspecified)	0.0631 µM		
CC(CN1CCN(c2ncccn2)CC1)NC(=O)c1cn(-c2ccccc2)nc1-c1ccccc1 (stereo unspecified)	1 µM	> 10 µM	
CC(CN1CCN(c2ncccn2)CC1)NC(=O)c1cccc(-c2ccc(F)cc2)c1 (stereo unspecified)	0.126 µM	> 10 µM	
CC(CN1CCN(c2ncccn2)CC1)NC(=O)c1nc(-c2ccccc2)oc1-c1ccccc1 (stereo unspecified)	3.98 µM	> 10 µM	
Cc1c(C(=O)NC(C)CN2CCN(c3ncccn3)CC2)cc(-c2ccccc2)n1-c1ccccc1 (stereo unspecified)	2 µM	> 10 µM	
Cc1ccccc1-c1nn(C)c2sc(C(=O)NC(C)CN3CCN(c4ncccn4)CC3)cc12 (stereo unspecified)	2 µM		
CC(CN1CCN(c2ncccn2)CC1)NC(=O)c1oc(-c2ccccc2)nc1-c1ccccc1 (stereo unspecified)	1.26 µM	> 10 µM	

Continued, in another order:

IC50 (P2X purinoceptor 3)	IC50 [1]	Structure (SMILES)	also measured
1 µM	> 10 µM	CCCc1nc(-c2ccc(F)cc2)oc1C(=O)N[C@H](C)CN1CCN(C(N)=O)CC1	
0.501 µM	> 10 µM	CCCc1cc(C(=O)NC(C)CN2CCN(c3ncccn3)CC2)cc(-c2ccc(F)cc2)c1 (stereo unspecified)	
0.0398 µM		CC(=O)N1CCN(CC(C)NC(=O)c2cc3c(-c4ccccc4F)nn(C)c3s2)CC1 (stereo unspecified)	
> 10 µM		CCCc1nc(-c2ccc(F)cc2)oc1COC(C)CN1CCN(c2ncccn2)CC1 (stereo unspecified)	
> 10 µM		CCCc1nc(-c2ccc(F)cc2)oc1C(=O)NCCN1CCN(c2ncccn2)CC1	
0.398 µM	> 10 µM	CCCc1nc(-c2ccc(F)cc2)oc1C(=O)N[C@H](C)CN1CCN(C(C)=O)CC1	
> 10 µM		CCCc1nc(-c2ccc(F)cc2)oc1C(=O)NC(CC)CN1CCN(c2ncccn2)CC1 (stereo unspecified)	
1.26 µM	> 10 µM	CCCc1nc(-c2ccc(F)cc2)oc1C(=O)N[C@H](C)CN1CCN(c2ccncn2)CC1	
0.0501 µM	> 10 µM	CCCc1nc(-c2ccc(F)cc2)oc1C(=O)N[C@H](C)CN1CCN(c2ncccn2)CC1	
> 10 µM		CCCc1nc(-c2ccc(F)cc2)oc1C(=O)N(C)CCN1CCN(c2ncccn2)CC1	
> 10 µM		CCCc1nc(-c2ccc(F)cc2)oc1CNC(C)CN1CCN(c2ncccn2)CC1 (stereo unspecified)	
0.501 µM	> 10 µM	CCCc1nc(-c2ccc(F)cc2)oc1C(=O)N[C@H](C)CN1CCN(c2cnccn2)CC1	
> 10 µM		CCCc1nc(-c2ccc(F)cc2)oc1C(=O)NC(C)(C)CN1CCN(c2ncccn2)CC1	
2.51 µM	> 10 µM	CCCc1nc(-c2ccc(F)cc2)oc1C(=O)N[C@H](C)CN1CCN(C(=O)c2ccco2)CC1	
> 10 µM	> 10 µM	CCCc1nc(-c2ccc(F)cc2)oc1C(=O)N[C@H](C)CN1CCN(C(=O)C2CC2)CC1	
0.1 µM	> 10 µM	CCCc1nc(-c2ccc(F)cc2)oc1C(=O)NC(C)CN1CCN(C(C)=S)CC1 (racemic)	
1.58 µM	> 10 µM	CCCc1nc(-c2ccc(F)cc2)oc1C(=O)N[C@H](C)CN1CCN(c2ccccn2)CC1	
0.1 µM		CC(=O)N1CCN(CC(C)NC(=O)c2cc3c(-c4ccccc4)nn(C)c3s2)CC1 (stereo unspecified)	
0.0398 µM		CC(=O)N1CCN(CC(C)NC(=O)c2cc3c(-c4ccc(C)cc4)nn(C)c3s2)CC1 (stereo unspecified)	
> 10 µM	> 10 µM	CCCc1nc(-c2ccc(F)cc2)oc1C(=O)N[C@H](C)CN1CCN(C(=O)OCC)CC1	
> 10 µM	> 10 µM	CCCc1nc(-c2ccc(F)cc2)oc1C(=O)N[C@H](C)CN1CCN(c2ccncc2)CC1	
2 µM	> 10 µM	CCCc1nc(-c2ccc(F)cc2)oc1C(=O)N[C@@H](C)CN1CCN(c2ncccn2)CC1	
2.51 µM		CCCc1nc(-c2ccc(F)cc2)oc1C(=O)NC(C)CN1CCCN(c2ncccn2)CC1 (stereo unspecified)	
0.631 µM	> 10 µM	CCCc1nc(-c2ccc(F)cc2)oc1C(=O)NC(C)CN1CCN(c2nccs2)CC1 (racemic)	
> 10 µM	> 10 µM	CCCc1nc(-c2ccc(F)cc2)oc1C(=O)N[C@H](C)CN1CCN(S(C)(=O)=O)CC1	
5.01 µM	> 10 µM	Cc1nc(-c2ccccc2)oc1C(=O)NC(C)CN1CCN(c2ncccn2)CC1 (stereo unspecified)	
> 10 µM	> 10 µM	CCCc1nc(-c2ccc(F)cc2)oc1C(=O)N[C@H](C)CN1CCN(C(=O)NC)CC1	
0.251 µM	> 10 µM	CCCc1nc(-c2ccccc2)oc1C(=O)NC(C)CN1CCN(c2ncccn2)CC1 (stereo unspecified)	fraction unbound [2]: < 0.01; IC50 (Cytochrome P450 3A4): < 10 µM; IC50 (Cytochrome P450 2D6): < 10 µM; IC50 (P2X purinoceptor 1): > 10 µM; IC50 (P2X purinoceptor 2): > 10 µM; IC50 (P2X purinoceptor 4): > 10 µM; IC50 (P2X purinoceptor 5): > 10 µM; IC50 (P2X purinoceptor 6): > 10 µM; IC50 (P2X purinoceptor 7): > 10 µM
> 10 µM	> 10 µM	CCCc1nc(-c2ccc(F)cc2)oc1C(=O)NC(C)CN1CCN(c2ccccn2)CC1 (racemic)	
0.501 µM	> 10 µM	CC(CN1CCN(c2ncccn2)CC1)NC(=O)c1cc(Br)cc(-c2ccc(F)cc2)c1 (stereo unspecified)	
